Where two headings read alike, the source gives them in different places.
Legend:
MV-4-11 = assay: Proliferation assay (spheroid assay) MV-4-11; format: cell-based, human; conditions: Homo sapiens, MV4-11, MV-4-11; averaged values; read-out: Spheroid assay MV-4-11 (IC50 (μM))
Protocol: (§1) The anti-proliferative effect of menin/MLL protein/protein interaction inhibitor test compounds was assessed in human leukemia cell lines. The cell lines MV-4-11 and MOLM14 harbor MLL translocations and express the MLL fusion proteins MLL-AF4 and MLL-AF9, respectively, as well as the wildtype protein from the second allele. […] K562 and KG1 were used as a control cell lines containing two MLL wildtype alleles in order to exclude compounds that display general cytotoxic effects.
(§2) MV-4-11 and MOLM14 were cultured in RPMI-1640 (Sigma Aldrich) supplemented with 10% fetal bovine serum (HyClone), 2 mM L-glutamine (Sigma Aldrich) and 50 μg/ml gentamycin (Gibco). K562 were propagated in RPMI-1640 (Sigma Aldrich) supplemented with 20% fetal bovine serum (HyClone), 2 mM L-glutamine (Sigma Aldrich) and 50 μg/ml gentamycin (Gibco). KG1 were cultured in Iscove's MDM (Gibco) supplemented with 20% fetal bovine serum (HyClone), 2 mM L-glutamine (Sigma Aldrich) and 50 μg/ml gentamycin (Gibco).
(§3) In order to assess the anti-proliferative effects, 1,500 MV-4-11, 300 MOLM14, 750 K562 or 1,300 KG1 cells were seeded in 200 μl media per well in 96-well round bottom, ultra-low attachment plates (Costar, catalogue number 7007). Cell seeding numbers were chosen based on growth curves to ensure linear growth throughout the experiment. Test compounds were added at different concentrations and the DMSO content was normalized to 0.3%. Cells were incubated for 8 d at 37° C. and 5% CO2. Spheroid like growth was monitored in real-time by live-cell imaging (IncuCyteZOOM, Essenbio, 4× objective) acquiring one image every four hours for 8 d. Confluence (%) as a measure of spheroid size was determined using an integrated analysis tool.
(§4) In order to determine the cumulative effect of the test compounds over time, the area under the curve (AUC) in a plot of confluence against time was calculated. Confluence at the beginning of the experiment (t=0) was used as baseline for the AUC calculation.
(§5) Absolute IC50 values were calculated according to the following procedure: % Control=(AUC sample/AUC control)*100 AUC control=mean AUC of control values (cells without compound/DMSO as vehicle control)
(§6) A non-linear curve fit was applied using the least squares (ordinary) fit method to the plot of % control versus compound concentration. Based on this, the absolute IC50 value (half maximal inhibitory concentration of the test compound causing an anti-proliferative effect of 50% relative to the vehicle control) was calculated.

MOLM14 = assay: Proliferation assay (spheroid assay) MOLM14; format: cell-based, human; conditions: Homo sapiens
Protocol: as §1, §2, §3, §4, §5, §6

| IC50 (MV-4-11) [µM] | SMILES | further results |
| --- | --- | --- |
| 1.09 | Cc1ccc(CC(C2CNC2)N2CC3(CCN(c4ncnc5sc(CC(F)(F)F)cc45)C3)C2)cc1 (centres unmarked) [Compound 318] | – |
| 7.2 | CC(C)[C@@H](c1cnn(C)c1)N1CC2(CCN(c3ncnc4sc(CC(F)(F)F)cc34)C2)C1 [Compound 203] | – |
| 1.37 | COc1cccc(CC(C)N2CC3(CCN(c4ncnc5sc(CC(F)(F)F)cc45)C3)C2)c1 (centres unmarked) [Compound 320] | – |
| 1.3 | CCC(C1CNC1)N1CC2(CCN(c3ncnc4sc(CC(F)(F)F)cc34)C2)C1 (centres unmarked) [Compound 259] | – |
| 4.23 | Fc1ccc(CCN2CC[C@@]3(CCN(c4ncnc5sc(CC(F)(F)F)cc45)C3)C2)cc1 (single isomer, unassigned) [Compound 298] | – |
| 3.18 | Cn1cc(CN2CC[C@]3(CCN(c4ncnc5sc(CC(F)(F)F)cc45)C3)C2)cn1 (single isomer, unassigned) [Compound 299] | – |
| 2.4 | FC(F)(F)Cc1cc2c(N3CCC4(CN(CC5CCNCC5)C4)C3)ncnc2s1 [Compound 311] | – |
| 0.75 | CC(Cc1ccc(O)cc1)N1CC2(CCN(c3ncnc4sc(CC(F)(F)F)cc34)C2)C1 (centres unmarked) [Compound 323] | – |
| 4.89 | FC(F)(F)Cc1cc2c(N3CC[C@@]4(CCN(CCc5ccccc5)C4)C3)ncnc2s1 (single isomer, unassigned) [Compound 296] | – |
| 1.7 | CC(Cc1ccccc1F)N1CC2(CCN(c3ncnc4sc(CC(F)(F)F)cc34)C2)C1 (centres unmarked) [Compound 322] | – |
| 0.2 | CC(C)C(C1CNC1)N1CC2(CCN(c3ncnc4sc(CC(F)(F)F)cc34)C2)C1 (centres unmarked) [Compound 222] | – |
| 6.1 | CC(c1cn[nH]c1)N1CC2(CCN(c3ncnc4sc(CC(F)(F)F)cc34)C2)C1 (centres unmarked) [Compound 223] | – |
| 1.9 | CC(C)C[C@@H](C1CNC1)N1CC2(CCN(c3ncnc4sc(CC(F)(F)F)cc34)C2)C1 [Compound 213] | – |
| 0.73 | CC(Cc1ccc(C#N)cc1)N1CC2(CCN(c3ncnc4sc(CC(F)(F)F)cc34)C2)C1 (centres unmarked) [Compound 314] | – |
| 1.9 | Cc1ccc(CC(C)N2CC3(CCN(c4ncnc5sc(CC(F)(F)F)cc45)C3)C2)cc1 (centres unmarked) [Compound 324] | – |
| 1.2 | CC[C@@H](C)[C@@H](c1cnn(C)c1)N1CC2(CCN(c3ncnc4sc(CC(F)(F)F)cc34)C2)C1 (single isomer, unassigned) [Compound 237] | – |
| 1.67 | CC(C)CCN1CC[C@@]2(CCN(c3ncnc4sc(CC(F)(F)F)cc34)C2)C1 (single isomer, unassigned) [Compound 293] | – |
| 1.1 | COc1ccc(CC(C)N2CC3(CCN(c4ncnc5sc(CC(F)(F)F)cc45)C3)C2)cc1 (centres unmarked) [Compound 321] | – |
| 0.71 | CC[C@@H](C)[C@H](c1cnn(C)c1)N1CC2(CCN(c3ncnc4sc(CC(F)(F)F)cc34)C2)C1 (single isomer, unassigned) [Compound 235] | – |
| 3.6 | CC(C)CC(C1CCC2(CCCC2)OC1)N1CC2(CCN(c3ncnc4sc(CC(F)(F)F)cc34)C2)C1 (single isomer, unassigned) [Compound 313] | – |
| 1.83 | CC(C)CCN1CC[C@]2(CCN(c3ncnc4sc(CC(F)(F)F)cc34)C2)C1 (single isomer, unassigned) [Compound 294] | – |

More lines, now with the values behind:

| SMILES | IC50 (MV-4-11) [µM] | further results |
| --- | --- | --- |
| CC(C)CN1CCC2(C1)CN(c1ncnc3sc(CC(F)(F)F)cc13)C2 [Compound 58] | 2.7 | – |
| CC(C)C(c1cnn(C)c1)N1CC[C@]2(CCN(c3ncnc4sc(CC(F)(F)F)cc34)C2)C1 (some centres unmarked) [Compound 186] | 1.3 | – |
| Cc1nn(C)cc1C(C(C)C)N1CC2(CCN(c3ncnc4sc(CC(F)(F)F)cc34)C2)C1 (centres unmarked) [Compound 161] | 4.2 | – |
| CC(C)[C@@H](C1CCNCC1)N1CC2(CCN(c3ncnc4sc(CC(F)(F)F)cc34)C2)C1 [Compound 169] | 3.5 | – |
| FC(F)(F)Cc1cc2c(N3CC[C@@]4(CCN(CC5CCOCC5)C4)C3)ncnc2s1 [Compound 185] | 1.3 | – |
| Cc1ccc(CN2CC3(CCN(c4ncnc5sc(CC(F)(F)F)cc45)C3)C2)cc1 [Compound 49] | 2.1 | – |
| C[C@H](C1CNC1)N1CC2(CCN(c3ncnc4sc(CC(F)(F)F)cc34)C2)C1 [Compound 150] | 2 | – |
| C[C@@H](C1CCNCC1)N1CC2(CCN(c3ncnc4sc(CC(F)(F)F)cc34)C2)C1 [Compound 146] | 2.4 | – |
| Cc1c([C@@H](C(C)C)N2CC3(CCN(c4ncnc5sc(CC(F)(F)F)cc45)C3)C2)cnn1C [Compound 173] | 3.2 | – |
| Cc1cccc(CN2CC3(CCN(c4ncnc5sc(CC(F)(F)F)cc45)C3)C2)c1 [Compound 46] | 4.1 | – |
| CC(C1CCOCC1)N1CC2(CCN(c3ncnc4sc(CC(F)(F)F)cc34)C2)C1 (centres unmarked) [Compound 145] | 1.7 | IC50 (MOLM14; MOLM-14, MOLM14, averaged values, read-out: Spheroid assay MOLM14 (IC50 (μM))): 7.3 µM |
| COCCn1cc(C(C(C)C)N2CC3(CCN(c4ncnc5sc(CC(F)(F)F)cc45)C3)C2)cn1 (centres unmarked) [Compound 71] | 1.1 | – |
| CC(Cc1cccc(F)c1)N1CC2(CCN(c3ncnc4sc(CC(F)(F)F)cc34)C2)C1 (centres unmarked) [Compound 183] | 1.3 | – |
| CC(C)C[C@@H](C1CCOCC1)N1CC2(CCN(c3ncnc4sc(CC(F)(F)F)cc34)C2)C1 [Compound 180] | 1.9 | – |
| NCCn1cc(CN2CC3(CCN(c4ncnc5sc(CC(F)(F)F)cc45)C3)C2)cn1 [Compound 77] | 12.1 | – |
| CC(C)C(C1CCNCC1)N1CC2(CCN(c3ncnc4sc(CC(F)(F)F)cc34)C2)C1 (centres unmarked) [Compound 148] | 0.33 | – |
| Cc1c(C(C(C)C)N2CC3(CCN(c4ncnc5sc(CC(F)(F)F)cc45)C3)C2)cnn1C (centres unmarked) [Compound 172] | 2.9 | – |
| CC(C)C[C@H](C1CCOCC1)N1CC2(CCN(c3ncnc4sc(CC(F)(F)F)cc34)C2)C1 [Compound 179] | 1.3 | – |
| Fc1ccccc1CN1CC2(CCN(c3ncnc4sc(CC(F)(F)F)cc34)C2)C1 [Compound 54] | 3.7 | – |

| SMILES | IC50 (MV-4-11) [µM] | further results |
| --- | --- | --- |
| FC(F)(F)Cc1cc2c(N3CCC4(CN(CCC5CCOCC5)C4)C3)ncnc2s1 [Compound 67] | 4.9 | – |
| CC(C)[C@H](c1cnn(C)c1)N1CC[C@]2(CCN(c3ncnc4sc(CC(F)(F)F)cc34)C2)C1 (single isomer, unassigned) [Compound 188] | 1.5 | – |
| FC(F)(F)Cc1cc2c(N3CCC4(CN(CCc5ccccc5)C4)C3)ncnc2s1 [Compound 69] | 1.2 | – |
| CC(Cc1cc(F)cc(F)c1)N1CC2(CCN(c3ncnc4sc(CC(F)(F)F)cc34)C2)C1 (centres unmarked) [Compound 170] | 4.3 | – |
| Cc1nn(C)cc1[C@@H](C(C)C)N1CC2(CCN(c3ncnc4sc(CC(F)(F)F)cc34)C2)C1 [Compound 166] | 2.4 | – |
| CO[C@@H]1CN[C@H](C(=O)N2CC3(C2)CN(c2ncnc4sc(CC(F)(F)F)cc24)C3)C1 [Compound 110] | 4 | – |
| FC(F)(F)Cc1cc2c(N3CC[C@]4(CCN(CC5CCOCC5)C4)C3)ncnc2s1 [Compound 187] | 1.4 | – |
| C[C@H](C1CCNCC1)N1CC2(CCN(c3ncnc4sc(CC(F)(F)F)cc34)C2)C1 [Compound 147] | 8.2 | – |
| Cn1cc([C@H](C2CCNCC2)N2CC3(CCN(c4ncnc5sc(CC(F)(F)F)cc45)C3)C2)cn1 [Compound 202] | > 15 | – |
| CN1CC2(CC2)C[C@H]1C(=O)N1CC2(C1)CN(c1ncnc3sc(CC(F)(F)F)cc13)C2 [Compound 108] | > 15 | – |
| COc1ccccc1CC(C)N1CC2(CCN(c3ncnc4sc(CC(F)(F)F)cc34)C2)C1 (centres unmarked) [Compound 171] | 3.1 | – |
| O=C([C@H]1CC2(CC2)CN1)N1CC2(C1)CN(c1ncnc3sc(CC(F)(F)F)cc13)C2 [Compound 109] | 8.1 | – |
| Fc1cccc(CN2CC3(CCN(c4ncnc5sc(CC(F)(F)F)cc45)C3)C2)c1 [Compound 56] | 4.9 | – |
| Cc1ccccc1CN1CC2(CCN(c3ncnc4sc(CC(F)(F)F)cc34)C2)C1 [Compound 45] | 3.4 | – |
| CC(C)C(C1CCOCC1)N1CC2(CCN(c3ncnc4sc(CC(F)(F)F)cc34)C2)C1 (centres unmarked) [Compound 156] | 0.79 | – |
| Cn1cc2c(n1)CCCC2N1CC2(CCN(c3ncnc4sc(CC(F)(F)F)cc34)C2)C1 (single isomer, unassigned) [Compound 138] | – | IC50 (MOLM14; MOLM-14, 192 h, MOLM14 (MLL-AF9), 8 d, absolute IC50 from AUC of confluence, individual measurements (not averaged), read-out: (2) Spheroid assay MOLM14 (IC50 (μM))): 7 µM |
| CO[C@H]1CN[C@H](C(=O)N2CC3(C2)CN(c2ncnc4sc(CC(F)(F)F)cc24)C3)C1 [Compound 111] | 9.3 | – |
| CC(C)[C@@H](C1CCOCC1)N1CC2(CCN(c3ncnc4sc(CC(F)(F)F)cc34)C2)C1 [Compound 162] | 3.1 | – |
